# What was measured:
# [1] = molecular target: Ubiquitin carboxyl-terminal hydrolase 4 (Homo sapiens, UniProt Q13107); test: Inhibition of human 6His-tagged USP4 expressed in Escherichia coli assessed as cleavage of Ubiquitin-Rhodamine110-glycine to Ubiquitin and Rhodamine110-glycine using Ubiquitin-Rhodamine110-glycine as substrate by fluorescence based analysis
# [2] = molecular target: Ubiquitin carboxyl-terminal hydrolase 30 (Homo sapiens, UniProt Q70CQ3); test: Inhibition of human USP30 CD (57 to 517 residues) expressed in Escherichia coli assessed as cleavage of Ubiquitin-Rhodamine110-glycine to Ubiquitin and Rhodamine110-glycine using Ubiquitin-Rhodamine110-glycine as substrate by fluorescence based analysis
# [3] = molecular target: T1, Ubiquitin carboxyl-terminal hydrolase 7 (Homo sapiens, UniProt Q93009); test: Inhibition of USP7 in human RKO cells transfected with p53 luciferase reporter vector assessed as increase in p53-dependent luciferase activity measured after 18 hrs by BrightGlo luciferase assay; type: cell-based
# [4] = molecular target: Ubiquitin carboxyl-terminal hydrolase 5 (Homo sapiens, UniProt P45974); test: Inhibition of human 6His-tagged USP5 expressed in Escherichia coli assessed as cleavage of Ubiquitin-Rhodamine110-glycine to Ubiquitin and Rhodamine110-glycine using Ubiquitin-Rhodamine110-glycine as substrate by fluorescence based analysis
# [5] = molecular target: Ubiquitin carboxyl-terminal hydrolase 21 (Homo sapiens, UniProt Q9UK80); test: Inhibition of human GST-tagged USP21 CD (196 to 565 residues) expressed in Escherichia coli assessed as cleavage of Ubiquitin-Rhodamine110-glycine to Ubiquitin and Rhodamine110-glycine using Ubiquitin-Rhodamine110-glycine as substrate by fluorescence based analysis
# Ataxin-3 = Ataxin-3 (Homo sapiens, UniProt P54252); test: Inhibition of human GST-tagged Ataxin-3 expressed in Escherichia coli assessed as cleavage of Ubiquitin-Rhodamine110-glycine to Ubiquitin and Rhodamine110-glycine using Ubiquitin-Rhodamine110-glycine as substrate by fluorescence based analysis
# [6] = molecular target: T2, Ubiquitin carboxyl-terminal hydrolase 1 (Homo sapiens, UniProt O94782); test: Inhibition of His6-tagged human USP1 expressed in insect Sf21 cells coexpressing untagged UAF1 assessed as cleavage of Ubiquitin-Rhodamine110-glycine to Ubiquitin and Rhodamine110-glycine using Ubiquitin-Rhodamine110-glycine as substrate by fluorescence based analysis
# T2 sequence (O94782 whole entry): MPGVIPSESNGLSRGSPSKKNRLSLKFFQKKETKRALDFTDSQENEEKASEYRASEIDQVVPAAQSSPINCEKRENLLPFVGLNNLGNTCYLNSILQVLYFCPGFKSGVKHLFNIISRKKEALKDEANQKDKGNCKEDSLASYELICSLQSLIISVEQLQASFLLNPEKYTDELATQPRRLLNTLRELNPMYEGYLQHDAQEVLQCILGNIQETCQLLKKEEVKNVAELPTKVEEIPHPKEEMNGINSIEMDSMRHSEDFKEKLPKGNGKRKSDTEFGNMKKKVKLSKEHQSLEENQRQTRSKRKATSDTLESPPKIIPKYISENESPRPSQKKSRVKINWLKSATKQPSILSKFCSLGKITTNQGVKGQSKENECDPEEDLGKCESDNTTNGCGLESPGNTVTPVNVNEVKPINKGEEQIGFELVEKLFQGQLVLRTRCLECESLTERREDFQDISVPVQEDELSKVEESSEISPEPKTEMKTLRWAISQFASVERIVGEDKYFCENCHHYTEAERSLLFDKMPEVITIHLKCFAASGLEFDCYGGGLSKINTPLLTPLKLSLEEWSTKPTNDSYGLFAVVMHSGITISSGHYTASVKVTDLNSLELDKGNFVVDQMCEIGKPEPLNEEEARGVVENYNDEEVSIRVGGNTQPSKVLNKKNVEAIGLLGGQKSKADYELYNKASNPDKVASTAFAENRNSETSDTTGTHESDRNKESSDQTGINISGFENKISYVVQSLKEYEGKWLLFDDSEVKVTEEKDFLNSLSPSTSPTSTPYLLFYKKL
# [7] = molecular target: Ubiquitin carboxyl-terminal hydrolase 8 (Homo sapiens, UniProt P40818); test: Inhibition of human USP8 expressed in Escherichia coli assessed as cleavage of Ubiquitin-Rhodamine110-glycine to Ubiquitin and Rhodamine110-glycine using Ubiquitin-Rhodamine110-glycine as substrate by fluorescence based analysis
# Homo sapiens = organism: Homo sapiens; test: Selectivity index, ratio of IC50 for human GST-tagged VCPIP CD (25 to 561 residues) expressed in Escherichia coli assessed as cleavage of Ubiquitin-Rhodamine110-glycine to Ubiquitin and Rhodamine110-glycine using Ubiquitin-Rhodamine110-glycine as substrate by fluorescence based analysis to IC50 for inhibition of recombinant full length USP7 (unknown origin) using ubiquintin-rhodamine as substrate preincubated for 30 mins followed by substrate addition measured after 1 hr by fluorescence-based Envision plate reader assay
# [8] = molecular target: T1, Ubiquitin carboxyl-terminal hydrolase 7; test: Inhibition of recombinant full length USP7 (unknown origin) using ubiquintin-rhodamine as substrate preincubated for 30 mins followed by substrate addition measured after 1 hr by fluorescence-based Envision plate reader assay
# [9] = molecular target: Ubiquitin carboxyl-terminal hydrolase 20 (Homo sapiens, UniProt Q9Y2K6); test: Inhibition of human GST-tagged USP20 expressed in Sf21 insect cells assessed as cleavage of Ubiquitin-Rhodamine110-glycine to Ubiquitin and Rhodamine110-glycine using Ubiquitin-Rhodamine110-glycine as substrate by fluorescence based analysis
# [10] = molecular target: Ubiquitin carboxyl-terminal hydrolase 16 (Homo sapiens, UniProt Q9Y5T5); test: Inhibition of USP16 (unknown origin)
# [11] = molecular target: Ubiquitin carboxyl-terminal hydrolase 6 (Homo sapiens, UniProt P35125); test: Inhibition of human GST-tagged USP6 CD (529 to 1406 residues) expressed in Sf21 insect cells assessed as cleavage of Ubiquitin-Rhodamine110-glycine to Ubiquitin and Rhodamine110-glycine using Ubiquitin-Rhodamine110-glycine as substrate by fluorescence based analysis
# [12] = molecular target: OTU domain-containing protein 1 (Homo sapiens, UniProt Q5VV17); test: Inhibition of human 6His-tagged OTUD1 CD (270 to 481 residues) expressed in Escherichia coli assessed as cleavage of Ubiquitin-Rhodamine110-glycine to Ubiquitin and Rhodamine110-glycine using Ubiquitin-Rhodamine110-glycine as substrate by fluorescence based analysis
# Chain of OTU domain-containing protein 1 (Q5VV17 whole entry, the tested form may be a part): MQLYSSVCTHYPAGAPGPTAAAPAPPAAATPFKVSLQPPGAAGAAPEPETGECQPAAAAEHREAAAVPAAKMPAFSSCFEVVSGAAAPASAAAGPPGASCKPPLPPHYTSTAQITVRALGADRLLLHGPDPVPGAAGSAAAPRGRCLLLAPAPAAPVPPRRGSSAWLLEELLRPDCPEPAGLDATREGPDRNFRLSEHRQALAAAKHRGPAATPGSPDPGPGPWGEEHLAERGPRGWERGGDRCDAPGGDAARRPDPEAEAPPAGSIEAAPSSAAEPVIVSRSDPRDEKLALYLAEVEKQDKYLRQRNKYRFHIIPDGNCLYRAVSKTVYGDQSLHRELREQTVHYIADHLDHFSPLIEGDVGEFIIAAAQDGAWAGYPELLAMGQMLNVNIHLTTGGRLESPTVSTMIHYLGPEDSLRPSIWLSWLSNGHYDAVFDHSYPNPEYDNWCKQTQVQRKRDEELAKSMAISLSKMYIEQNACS
# T1 sequence (Q93009 whole entry): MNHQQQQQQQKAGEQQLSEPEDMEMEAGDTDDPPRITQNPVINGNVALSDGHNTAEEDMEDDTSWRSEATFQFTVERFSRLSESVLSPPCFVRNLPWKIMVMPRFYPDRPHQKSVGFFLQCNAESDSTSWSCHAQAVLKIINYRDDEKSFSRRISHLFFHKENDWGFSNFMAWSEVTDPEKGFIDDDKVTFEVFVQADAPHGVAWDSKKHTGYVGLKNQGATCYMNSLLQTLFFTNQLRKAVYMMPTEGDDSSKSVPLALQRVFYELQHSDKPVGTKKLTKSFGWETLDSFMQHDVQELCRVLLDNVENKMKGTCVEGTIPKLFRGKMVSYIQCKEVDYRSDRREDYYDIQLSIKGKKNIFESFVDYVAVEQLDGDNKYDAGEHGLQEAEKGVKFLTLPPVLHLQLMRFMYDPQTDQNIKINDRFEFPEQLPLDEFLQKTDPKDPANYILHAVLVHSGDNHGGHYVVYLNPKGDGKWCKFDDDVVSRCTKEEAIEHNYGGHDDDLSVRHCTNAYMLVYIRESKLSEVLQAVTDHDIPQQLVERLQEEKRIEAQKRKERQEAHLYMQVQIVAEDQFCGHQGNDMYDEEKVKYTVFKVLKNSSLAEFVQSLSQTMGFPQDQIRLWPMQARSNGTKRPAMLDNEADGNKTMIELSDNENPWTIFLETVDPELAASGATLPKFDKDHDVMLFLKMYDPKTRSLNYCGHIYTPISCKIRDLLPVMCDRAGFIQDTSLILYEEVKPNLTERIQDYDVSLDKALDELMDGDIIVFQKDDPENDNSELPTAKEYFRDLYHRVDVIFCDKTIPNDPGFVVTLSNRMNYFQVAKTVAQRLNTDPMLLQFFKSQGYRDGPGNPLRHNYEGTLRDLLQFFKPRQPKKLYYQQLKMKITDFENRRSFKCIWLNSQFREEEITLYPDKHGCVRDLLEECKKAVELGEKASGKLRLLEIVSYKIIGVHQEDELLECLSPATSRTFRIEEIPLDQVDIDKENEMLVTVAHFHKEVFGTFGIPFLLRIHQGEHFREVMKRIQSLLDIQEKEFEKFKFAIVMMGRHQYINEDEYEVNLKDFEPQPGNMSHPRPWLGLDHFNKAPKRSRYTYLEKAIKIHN
# Chain of Ubiquitin carboxyl-terminal hydrolase 6 (P35125 whole entry, the tested form may be a part): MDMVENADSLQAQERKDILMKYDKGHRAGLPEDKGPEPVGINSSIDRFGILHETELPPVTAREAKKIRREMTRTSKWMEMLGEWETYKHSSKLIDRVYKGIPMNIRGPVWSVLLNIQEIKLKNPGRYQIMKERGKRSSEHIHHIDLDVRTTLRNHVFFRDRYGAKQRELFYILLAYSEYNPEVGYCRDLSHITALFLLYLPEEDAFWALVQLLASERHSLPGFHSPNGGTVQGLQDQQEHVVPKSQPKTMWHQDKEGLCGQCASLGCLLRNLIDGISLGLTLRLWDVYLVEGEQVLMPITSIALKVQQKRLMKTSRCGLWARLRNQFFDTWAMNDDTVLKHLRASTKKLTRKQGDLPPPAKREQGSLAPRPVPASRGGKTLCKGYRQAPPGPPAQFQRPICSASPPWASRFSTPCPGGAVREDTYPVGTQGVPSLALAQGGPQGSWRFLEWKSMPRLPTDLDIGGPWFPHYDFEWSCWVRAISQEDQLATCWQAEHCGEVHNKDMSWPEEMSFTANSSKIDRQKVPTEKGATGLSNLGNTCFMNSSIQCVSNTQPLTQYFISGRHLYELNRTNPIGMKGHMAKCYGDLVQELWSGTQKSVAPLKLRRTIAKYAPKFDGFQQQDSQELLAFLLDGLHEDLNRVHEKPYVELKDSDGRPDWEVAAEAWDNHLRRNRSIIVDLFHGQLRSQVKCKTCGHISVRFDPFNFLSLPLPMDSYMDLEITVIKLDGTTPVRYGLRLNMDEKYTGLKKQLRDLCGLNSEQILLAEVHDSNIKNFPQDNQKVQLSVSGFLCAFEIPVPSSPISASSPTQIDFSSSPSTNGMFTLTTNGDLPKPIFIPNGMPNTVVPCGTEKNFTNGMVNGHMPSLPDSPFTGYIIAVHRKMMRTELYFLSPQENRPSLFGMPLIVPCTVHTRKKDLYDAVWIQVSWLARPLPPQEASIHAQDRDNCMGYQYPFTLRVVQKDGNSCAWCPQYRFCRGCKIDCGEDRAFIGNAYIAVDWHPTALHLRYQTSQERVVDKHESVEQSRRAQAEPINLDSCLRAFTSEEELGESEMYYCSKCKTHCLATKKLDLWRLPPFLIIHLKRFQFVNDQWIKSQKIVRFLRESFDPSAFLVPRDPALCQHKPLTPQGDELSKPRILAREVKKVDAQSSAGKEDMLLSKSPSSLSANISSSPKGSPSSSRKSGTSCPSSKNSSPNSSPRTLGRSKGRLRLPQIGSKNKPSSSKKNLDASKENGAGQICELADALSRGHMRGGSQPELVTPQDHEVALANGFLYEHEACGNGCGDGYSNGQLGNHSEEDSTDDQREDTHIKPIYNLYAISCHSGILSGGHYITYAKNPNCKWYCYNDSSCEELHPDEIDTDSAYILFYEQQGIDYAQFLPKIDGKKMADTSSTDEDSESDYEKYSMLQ
# Chain of Ubiquitin carboxyl-terminal hydrolase 8 (P40818 whole entry, the tested form may be a part): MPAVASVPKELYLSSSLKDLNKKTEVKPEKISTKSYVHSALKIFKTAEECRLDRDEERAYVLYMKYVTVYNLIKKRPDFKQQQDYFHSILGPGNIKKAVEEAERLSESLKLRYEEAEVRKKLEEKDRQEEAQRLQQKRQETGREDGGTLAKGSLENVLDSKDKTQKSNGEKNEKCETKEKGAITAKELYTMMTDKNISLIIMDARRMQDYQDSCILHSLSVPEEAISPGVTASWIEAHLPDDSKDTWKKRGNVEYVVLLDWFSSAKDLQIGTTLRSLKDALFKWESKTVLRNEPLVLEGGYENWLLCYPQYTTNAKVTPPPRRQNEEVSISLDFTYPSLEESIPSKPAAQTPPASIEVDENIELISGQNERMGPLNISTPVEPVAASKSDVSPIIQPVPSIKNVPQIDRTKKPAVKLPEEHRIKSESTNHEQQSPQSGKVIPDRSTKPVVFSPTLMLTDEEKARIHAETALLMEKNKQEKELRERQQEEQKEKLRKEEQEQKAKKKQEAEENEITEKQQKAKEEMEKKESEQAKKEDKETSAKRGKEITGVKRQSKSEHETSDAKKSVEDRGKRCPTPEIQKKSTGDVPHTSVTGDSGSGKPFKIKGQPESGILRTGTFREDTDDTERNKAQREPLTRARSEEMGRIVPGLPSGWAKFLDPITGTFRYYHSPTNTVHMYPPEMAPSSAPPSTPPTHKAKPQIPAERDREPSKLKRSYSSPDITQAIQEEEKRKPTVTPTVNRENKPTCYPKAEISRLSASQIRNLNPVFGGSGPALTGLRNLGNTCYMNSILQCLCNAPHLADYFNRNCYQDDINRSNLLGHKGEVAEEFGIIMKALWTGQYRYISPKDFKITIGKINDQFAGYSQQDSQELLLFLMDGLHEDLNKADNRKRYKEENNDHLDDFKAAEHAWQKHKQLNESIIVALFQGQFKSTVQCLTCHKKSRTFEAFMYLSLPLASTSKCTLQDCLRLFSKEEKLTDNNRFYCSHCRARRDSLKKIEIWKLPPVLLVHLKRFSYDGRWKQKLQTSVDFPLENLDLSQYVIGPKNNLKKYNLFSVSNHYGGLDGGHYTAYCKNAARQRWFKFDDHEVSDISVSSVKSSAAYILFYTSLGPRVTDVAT
# Chain of Ubiquitin carboxyl-terminal hydrolase 30 (Q70CQ3 whole entry, the tested form may be a part): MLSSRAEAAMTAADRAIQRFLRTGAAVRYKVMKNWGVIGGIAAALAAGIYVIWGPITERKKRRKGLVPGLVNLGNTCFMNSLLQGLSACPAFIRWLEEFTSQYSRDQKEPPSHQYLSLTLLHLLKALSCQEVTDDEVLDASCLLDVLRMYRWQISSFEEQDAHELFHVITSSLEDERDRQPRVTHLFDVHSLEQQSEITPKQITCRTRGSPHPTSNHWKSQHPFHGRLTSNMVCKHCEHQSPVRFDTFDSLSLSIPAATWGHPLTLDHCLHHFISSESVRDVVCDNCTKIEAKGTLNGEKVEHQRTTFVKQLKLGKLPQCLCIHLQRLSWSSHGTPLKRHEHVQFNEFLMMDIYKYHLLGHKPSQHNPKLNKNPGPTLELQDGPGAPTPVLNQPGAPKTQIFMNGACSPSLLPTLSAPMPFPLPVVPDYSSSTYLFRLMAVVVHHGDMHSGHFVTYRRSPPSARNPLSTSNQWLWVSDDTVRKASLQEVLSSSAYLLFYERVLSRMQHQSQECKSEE
# Chain of Ataxin-3 (P54252 whole entry): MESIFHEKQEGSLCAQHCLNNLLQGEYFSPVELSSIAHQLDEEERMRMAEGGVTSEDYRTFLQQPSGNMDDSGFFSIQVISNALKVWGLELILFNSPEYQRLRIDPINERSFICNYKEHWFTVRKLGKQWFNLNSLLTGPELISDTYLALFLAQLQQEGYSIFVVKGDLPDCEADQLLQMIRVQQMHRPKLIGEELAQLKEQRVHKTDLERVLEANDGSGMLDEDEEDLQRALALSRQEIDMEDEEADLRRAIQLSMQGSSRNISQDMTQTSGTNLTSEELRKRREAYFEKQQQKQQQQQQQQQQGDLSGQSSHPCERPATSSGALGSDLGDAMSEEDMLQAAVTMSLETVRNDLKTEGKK
structure (smiles),measurement,setting,value
Cc1cc(Cl)cc(-c2ccnc3cc(CN4C(=O)C5C(C4=O)C5(C)C)sc23)c1O[C@@H]1CCNC[C@@H]1C (some centres undefined),IC50,[1],> 10 µM
same,IC50,[2],> 10 µM
same,EC50,[3],0.065 µM
same,IC50,[4],> 10 µM
same,IC50,[5],> 10 µM
same,IC50,Ataxin-3,> 10 µM
same,IC50,[6],> 10 µM
same,IC50,[7],> 10 µM
same,Ratio IC50,Homo sapiens,> 50000
same,IC50,[8],0.00018 µM
same,IC50,[9],> 10 µM
same,IC50,[10],> 10 µM
same,IC50,[11],> 10 µM
same,IC50,[12],> 10 µM

# From ChEMBL document CHEMBL4602719, “Discovery of Potent, Selective, and Orally Bioavailable Inhibitors of USP7 with In Vivo Antitumor Activity” (J Med Chem, 2020)
